Reference: PMC3760497 (Nature, 2011)

Target: Get3 (Saccharomyces cerevisiae, UniProt Q12154, D57N)
Experiment: mant-ATP chase titration, fluorescence
Assay type: binding
Details: 1 uM Get3(D57N), 1 uM mant-ATP; 50 mM HEPES pH 7.5, 100 mM NaCl, 5 mM MgCl2; competitive with mant-ATP

Chain of Get3 (Q12154 whole entry D57N): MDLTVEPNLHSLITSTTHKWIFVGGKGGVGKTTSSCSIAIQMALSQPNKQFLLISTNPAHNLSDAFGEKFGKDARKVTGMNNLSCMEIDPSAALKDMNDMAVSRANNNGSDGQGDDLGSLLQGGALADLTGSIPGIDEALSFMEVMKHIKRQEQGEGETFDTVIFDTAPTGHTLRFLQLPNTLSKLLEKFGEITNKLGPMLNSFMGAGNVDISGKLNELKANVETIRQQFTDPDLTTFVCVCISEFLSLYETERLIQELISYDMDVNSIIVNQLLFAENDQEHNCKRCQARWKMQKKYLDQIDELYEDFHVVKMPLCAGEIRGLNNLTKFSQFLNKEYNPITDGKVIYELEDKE

Nc1ncnc2c1ncn2[C@@H]1O[C@H](COP(=O)(O)OP(=O)(O)O)[C@@H](O)[C@H]1O [ADP]
dissociation constant: ADP (which binds weakly to substrate-free Get3; Sup. Fig. S18)
